From US20200121620A1, “SENOLYTIC COMPOUNDS” (UNITED KINGDOM RESEARCH AND INNOVATION, priority 2017, published 2020)

How the values were obtained:
[1] = test system: senescent cells in the lung; assay: Elimination of senescent cells induced by Doxorubicin treatment in mice; type: in vivo; details: single dose 10 mg/kg Doxorubicin; 2 months later treated for 4 consecutive days; FIG. 15
Procedure: (A) Experimental set up, mice (n=5 per group) were administered with a single dose of 10 mg/kg of Doxorubicin. […] (B) Cryosections of lungs obtained from control and doxorubicin treated mice were stained with hematoxilin and eosin (to reveal tissue architecture), and SA-β-Gal (to reveal senescent cells). Senescent cells accumulate in the bronchioles of doxorubicin-treated mice. (C) Quantification of the lung area positive for SA-β-Gal staining. […] (D) Representative pictures of lung cryosections.
Further experiments investigated whether the senolytic agents were capable of eliminating senescent cells in vivo. […] These senescent cells are responsible for some of the side-effects associated with chemotherapy and can fuel the growth of cancerous cells (Demaria et al., 2016). […] Doxorubicin treatment induces senescence in the lung.

[2] = use in vivo; cited from earlier work
[3] = test system: senescent cells in the lung; assay: Elimination of senescent cells induced by whole body irradiation in mice; type: in vivo; details: 6 Gray whole body irradiation; 2 months later treated for 4 consecutive days; FIG. 16
Description: (A) Experimental set up, mice (n=5 per group) were irradiated with 6 Gray to induce senescence. […] (B) Cryosections of lungs obtained from control and irradiated mice were stained with hematoxilin and eosin (to reveal tissue architecture), and SA-β-Gal (to reveal senescent cells). Senescent cells accumulate in the bronchioles of irradiated mice. (C) Quantification of the lung area positive for SA-β-Gal staining. […] (D). Representative pictures of lung cryosections.
Whole-body irradiation is known to cause senescence. In irradiated mice, senescent cells accumulate in different tissues, including the lung (Chang et al., 2016; Yosef et al., 2016).

IMR90 ER:RAS E6/E7 cells = assay: Killing of IMR90 ER:RAS E6/E7 cells (RAS signalling without senescence); type: cell-based, human; details: 1, 5 and 10 μM; 4OHT vs DMSO; FIG. 5
Procedure: In these experiments the compounds were tested side by side with a control ABT-263 (the de facto gold standard senolytic compound) (Chang et al., 2016; Yosef et al., 2016; Zhu et al., 2016). Experiments were conducted to test the ability of the compounds to behave as senolytics during OIS (using IMR90 ER:RAS, FIG. 3 and HMEC hTERT ER:RAS, FIG. 4). […] To understand whether the selective killing of senescent IMR90 ER:RAS was a consequence of senescence induction or of activation of RAS signaling, experiments were conducted in isogenic IMR90 ER:RAS E6/E7 cells. In these cells, RAS signalling is induced by adding 100 nM 4OHT that activates the ER:RAS fusion protein. However, expression of the E6/E7 protein prevents senescence induction.
IMR90 ER:RAS cells = assay: Senolytic activity in IMR90 ER:RAS cells undergoing oncogene-induced senescence (4OHT) vs DMSO-treated non-senescent cells; details: 4OHT vs DMSO; FIG. 11
Procedure: FIG. 1: (A) IMR90 ER:RAS cells were induced to undergo senescence by treating them with 100 nM 4OHT for 6 days. At that point, 10 μM of the indicated drugs was added. In parallel, the same treatments were carried out in IMR90 ER:RAS cells treated with DMSO (−4OHT). […] Cells were fixed at day 6, 8 and 10 after 4OHT induction and stained with crystal violet to assess cell viability. T, Tyr-AG879; P, PF-573228; C, Cyclosporine. (B) A similar experiment to (A) was conducted and cells at day 10 post-induction were fixed and stained with DAPI to assess cell numbers
In the setup used, IMR90 ER:RAS cells were treated with 100 nM 4OHT to induce OIS (oncogene induced senescence) and activate the ER:RAS fusion protein. 6 days after 4OHT induction (+4OHT), once cells were fully senescent, the agents to be tested were added at a concentration of 10 μM, and cell numbers were assessed 4 days after by DAPI stained couple to automated microscopy. Alternatively, cells were fixed and stained with crystal violet. In parallel, the same treatments were carried out in IMR90 ER:RAS cells treated with DMSO (−4OHT).
IMR90 ER:RAS cells were induced to undergo senescence by treating them with 100 nM 4OHT for 6 days. At that point, 10 μM of the indicated drugs was added. In parallel, the same treatments were carried out in IMR90 ER:RAS cells treated with DMSO (−4OHT). […] Cells were fixed at day 6, 8 and 10 after 4OHT induction and stained with crystal violet to assess cell viability. A similar experiment was conducted and cells at day 10 post-induction were fixed and stained with DAPI to assess cell numbers (see FIG. 1).

[4] = test system: senescent human fibroblasts; details: Lui et al, Sci Rep 2015; cited from earlier work

| Compound | lung area positive for SA-β-Gal staining (senescent cells) [1] | side-effect [2] | lung area positive for SA-β-Gal staining (senescent cells) [3] | selectivity for killing IMR90 ER:RAS E6/E7 (IMR90 ER:RAS E6/E7 cells) | senolytic effect of statins, preferential killing of cells undergoing OIS (IMR90 ER:RAS cells) | senescence-associated secretory phenotype (SASP) [4] |
| --- | --- | --- | --- | --- | --- | --- |
| CC1(C)CCC(c2ccc(Cl)cc2)=C(CN2CCN(c3ccc(C(=O)NS(=O)(=O)c4ccc(N[C@H](CCN5CCOCC5)CSc5ccccc5)c(S(=O)(=O)C(F)(F)F)c4)cc3)CC2)C1 [ABT-263] | partially eliminated | significant thrombocytopenia | partially eliminated |  |  |  |
| c1ccc2c(c1)[IH]c1ccccc1-2 [Diphenyleneiodonium chloride] |  |  | partially eliminated | displayed selectivity for killing IMR90 ER:RAS E6/E7 |  |  |
| CCC(C)(C)C(=O)O[C@H]1C[C@@H](C)C=C2C=C[C@H](C)[C@H](CC[C@@H]3C[C@@H](O)CC(=O)O3)[C@H]21 [Simvastatin] |  |  |  |  | behaves as a senolytic in a concentration dependent manner | decrease the senescence-associated secretory phenotype (SASP) |
